# Test system: HSSY-II complex spheroid growth, percent test/control
# Assay: Anticancer human tumor HSSY-II cell line growth inhibition [Asc];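 note: spheroids exposed to drug for 7 days before reading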
# Settings: for IC50: curve of first compound; for viability, T/C: stronger effect = lower value
# In short: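 Complex spheroids combining tumor cells with HUVEC endothelial cells and human MSCs, at 37 degrees C, 5% CO2; agents tested alone or combined, half-log dilutions from at or near clinical Cmax, or 10 microM if Cmax unknown.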
# [1] = second compound 0.01 µM, first compound 0.0316 µM
# [2] = second compound 0.01 µM, first compound 0.1 µM
# [3] = second compound 0.01 µM, first compound 0.316 µM
# [4] = second compound 0.01 µM, first compound 1 µM
# [5] = second compound 0.0316 µM, first compound 0.0316 µM
# [6] = second compound 0.0316 µM, first compound 0.1 µM
# [7] = second compound 0.0316 µM, first compound 0.316 µM
# [8] = second compound 0.0316 µM, first compound 1 µM
# [9] = second compound 0.1 µM, first compound 0.0316 µM
# [10] = second compound 0.1 µM, first compound 0.1 µM
# [11] = second compound 0.1 µM, first compound 0.316 µM
# [12] = second compound 0.1 µM, first compound 1 µM
# [13] = second compound 0.316 µM, first compound 0.0316 µM
# [14] = second compound 0.316 µM, first compound 0.1 µM
# [15] = second compound 0.316 µM, first compound 0.316 µM
# [16] = second compound 0.316 µM, first compound 1 µM
# [17] = second compound 1 µM, first compound 0.0316 µM
# [18] = second compound 1 µM, first compound 0.1 µM
# [19] = second compound 1 µM, first compound 0.316 µM
# [20] = second compound 1 µM, first compound 1 µM
# [21] = second compound 0.01 µM, first compound 0.00316 µM
# [22] = second compound 0.01 µM, first compound 0.01 µM
# [23] = second compound 0.0316 µM, first compound 0.00316 µM
# [24] = second compound 0.0316 µM, first compound 0.01 µM
# [25] = second compound 0.1 µM, first compound 0.00316 µM
# [26] = second compound 0.1 µM, first compound 0.01 µM
# [27] = second compound 0.316 µM, first compound 0.00316 µM
# [28] = second compound 0.316 µM, first compound 0.01 µM
# [29] = second compound 1 µM, first compound 0.00316 µM
# [30] = second compound 1 µM, first compound 0.01 µM
smiles,measurement,setting,value
C=CC(=O)N1CCN(c2nc(=O)n(-c3c(C)ccnc3C(C)C)c3nc(-c4c(O)cccc4F)c(F)cc23)C(C)C1 (stereo not given) + CNC(C)C(=O)NC1CN(S(=O)(=O)c2cccc(S(=O)(=O)N3CCC4CCC(C(=O)NC(c5ccccc5)c5ccccc5)N4C(=O)C(NC(=O)C(C)NC)C3)c2)CCC2CCC(C(=O)NC(c3ccccc3)c3ccccc3)N2C1=O,IC50,second compound 0.01 µM,7990 nM
same,IC50,second compound 0.0316 µM,5850 nM
same,IC50,second compound 0.1 µM,5980 nM
same,IC50,second compound 0.316 µM,7420 nM
same,IC50,second compound 1 µM,6390 nM
same,"viability, T/C",[1],97.5%
same,"viability, T/C",[2],108%
same,"viability, T/C",[3],107%
same,"viability, T/C",[4],101%
same,"viability, T/C","second compound 0.01 µM, first compound 3.16 µM",94.3%
same,"viability, T/C","second compound 0.01 µM, first compound 10 µM",39.1%
same,"viability, T/C",[5],92.9%
same,"viability, T/C",[6],104%
same,"viability, T/C",[7],91.7%
same,"viability, T/C",[8],89.8%
same,"viability, T/C","second compound 0.0316 µM, first compound 3.16 µM",72%
same,"viability, T/C","second compound 0.0316 µM, first compound 10 µM",30.9%
same,"viability, T/C",[9],86.9%
same,"viability, T/C",[10],91.8%
same,"viability, T/C",[11],90.6%
same,"viability, T/C",[12],87.5%
same,"viability, T/C","second compound 0.1 µM, first compound 3.16 µM",68.4%
same,"viability, T/C","second compound 0.1 µM, first compound 10 µM",35.1%
same,"viability, T/C",[13],89.5%
same,"viability, T/C",[14],98.9%
same,"viability, T/C",[15],101%
same,"viability, T/C",[16],92.2%
same,"viability, T/C","second compound 0.316 µM, first compound 3.16 µM",89.1%
same,"viability, T/C","second compound 0.316 µM, first compound 10 µM",36.2%
same,"viability, T/C",[17],82.7%
same,"viability, T/C",[18],87.6%
same,"viability, T/C",[19],88.5%
same,"viability, T/C",[20],73.5%
same,"viability, T/C","second compound 1 µM, first compound 3.16 µM",89%
same,"viability, T/C","second compound 1 µM, first compound 10 µM",28.1%
COc1c(OCCCN2CCOCC2)ccc2c3n(c(=NC(=O)c4cnc(N)nc4)nc12)CCN3 + CNC(C)C(=O)NC1CN(S(=O)(=O)c2cccc(S(=O)(=O)N3CCC4CCC(C(=O)NC(c5ccccc5)c5ccccc5)N4C(=O)C(NC(=O)C(C)NC)C3)c2)CCC2CCC(C(=O)NC(c3ccccc3)c3ccccc3)N2C1=O,IC50,second compound 0.01 µM,44 nM
same,IC50,second compound 0.0316 µM,45.1 nM
same,IC50,second compound 0.1 µM,34.9 nM
same,IC50,second compound 0.316 µM,45.9 nM
same,IC50,second compound 1 µM,54 nM
same,"viability, T/C",[21],84.3%
same,"viability, T/C",[22],79.6%
same,"viability, T/C",[1],51.4%
same,"viability, T/C",[2],36.8%
same,"viability, T/C",[3],22.4%
same,"viability, T/C",[4],12%
same,"viability, T/C",[23],82%
same,"viability, T/C",[24],77.5%
same,"viability, T/C",[5],54.8%
same,"viability, T/C",[6],34.3%
same,"viability, T/C",[7],21.8%
same,"viability, T/C",[8],9.94%
same,"viability, T/C",[25],81.2%
same,"viability, T/C",[26],64.9%
same,"viability, T/C",[9],49%
same,"viability, T/C",[10],38.8%
same,"viability, T/C",[11],24.7%
same,"viability, T/C",[12],10.4%
same,"viability, T/C",[27],86.4%
same,"viability, T/C",[28],80.1%
same,"viability, T/C",[13],53.8%
same,"viability, T/C",[14],34.5%
same,"viability, T/C",[15],24.2%
same,"viability, T/C",[16],8.5%
same,"viability, T/C",[29],80.1%
same,"viability, T/C",[30],73.8%
same,"viability, T/C",[17],63.2%
same,"viability, T/C",[18],33.7%
same,"viability, T/C",[19],24.7%
same,"viability, T/C",[20],9.52%
NC(=O)C(=Cn1cnc(-c2cc(C(F)(F)F)cc(C(F)(F)F)c2)n1)c1cncnc1 + CNC(C)C(=O)NC1CN(S(=O)(=O)c2cccc(S(=O)(=O)N3CCC4CCC(C(=O)NC(c5ccccc5)c5ccccc5)N4C(=O)C(NC(=O)C(C)NC)C3)c2)CCC2CCC(C(=O)NC(c3ccccc3)c3ccccc3)N2C1=O,IC50,second compound 0.01 µM,10.6 nM
same,IC50,second compound 0.0316 µM,14.3 nM
same,IC50,second compound 0.1 µM,12.9 nM
same,IC50,second compound 0.316 µM,11.1 nM
same,IC50,second compound 1 µM,12.7 nM
same,"viability, T/C","second compound 0.01 µM, first compound 0.000949 µM",93.6%
same,"viability, T/C","second compound 0.01 µM, first compound 0.003 µM",78.1%
same,"viability, T/C","second compound 0.01 µM, first compound 0.00949 µM",53.5%
same,"viability, T/C","second compound 0.01 µM, first compound 0.03 µM",23.7%
same,"viability, T/C","second compound 0.01 µM, first compound 0.0949 µM",11.5%
same,"viability, T/C","second compound 0.01 µM, first compound 0.3 µM",0.44%
same,"viability, T/C","second compound 0.0316 µM, first compound 0.000949 µM",77.6%
same,"viability, T/C","second compound 0.0316 µM, first compound 0.003 µM",79.4%
same,"viability, T/C","second compound 0.0316 µM, first compound 0.00949 µM",57.8%
same,"viability, T/C","second compound 0.0316 µM, first compound 0.03 µM",32.5%
same,"viability, T/C","second compound 0.0316 µM, first compound 0.0949 µM",9.75%
same,"viability, T/C","second compound 0.0316 µM, first compound 0.3 µM",0.64%
same,"viability, T/C","second compound 0.1 µM, first compound 0.000949 µM",76.4%
same,"viability, T/C","second compound 0.1 µM, first compound 0.003 µM",68.2%
same,"viability, T/C","second compound 0.1 µM, first compound 0.00949 µM",58.9%
same,"viability, T/C","second compound 0.1 µM, first compound 0.03 µM",28.8%
same,"viability, T/C","second compound 0.1 µM, first compound 0.0949 µM",7.63%
same,"viability, T/C","second compound 0.1 µM, first compound 0.3 µM",0.48%
same,"viability, T/C","second compound 0.316 µM, first compound 0.000949 µM",91.1%
same,"viability, T/C","second compound 0.316 µM, first compound 0.003 µM",73.5%
same,"viability, T/C","second compound 0.316 µM, first compound 0.00949 µM",55.1%
same,"viability, T/C","second compound 0.316 µM, first compound 0.03 µM",29.3%
same,"viability, T/C","second compound 0.316 µM, first compound 0.0949 µM",6.77%
same,"viability, T/C","second compound 0.316 µM, first compound 0.3 µM",0.44%
same,"viability, T/C","second compound 1 µM, first compound 0.000949 µM",88.1%
same,"viability, T/C","second compound 1 µM, first compound 0.003 µM",79.8%
same,"viability, T/C","second compound 1 µM, first compound 0.00949 µM",56.3%
same,"viability, T/C","second compound 1 µM, first compound 0.03 µM",29.9%
same,"viability, T/C","second compound 1 µM, first compound 0.0949 µM",5.98%
same,"viability, T/C","second compound 1 µM, first compound 0.3 µM",0.56%
NC1CCC(NC2CC2c2ccccc2)CC1 (stereo not given) + CNC(C)C(=O)NC1CN(S(=O)(=O)c2cccc(S(=O)(=O)N3CCC4CCC(C(=O)NC(c5ccccc5)c5ccccc5)N4C(=O)C(NC(=O)C(C)NC)C3)c2)CCC2CCC(C(=O)NC(c3ccccc3)c3ccccc3)N2C1=O,IC50,second compound 0.01 µM,> 100 nM
same,IC50,second compound 0.0316 µM,< 0.316 nM
same,IC50,second compound 0.1 µM,0.67 nM
same,IC50,second compound 0.316 µM,< 0.316 nM
same,IC50,second compound 1 µM,< 0.316 nM
same,"viability, T/C","second compound 0.01 µM, first compound 0.000316 µM",59.5%
same,"viability, T/C","second compound 0.01 µM, first compound 0.001 µM",59.1%
same,"viability, T/C",[21],48.6%
same,"viability, T/C",[22],54.9%
same,"viability, T/C",[1],56.4%
same,"viability, T/C",[2],52.1%
same,"viability, T/C","second compound 0.0316 µM, first compound 0.000316 µM",43.9%
same,"viability, T/C","second compound 0.0316 µM, first compound 0.001 µM",43.3%
same,"viability, T/C",[23],46.4%
same,"viability, T/C",[24],49.3%
same,"viability, T/C",[5],45.5%
same,"viability, T/C",[6],48.7%
same,"viability, T/C","second compound 0.1 µM, first compound 0.000316 µM",56.2%
same,"viability, T/C","second compound 0.1 µM, first compound 0.001 µM",46.3%
same,"viability, T/C",[25],48.4%
same,"viability, T/C",[26],49.2%
same,"viability, T/C",[9],39%
same,"viability, T/C",[10],49.9%
same,"viability, T/C","second compound 0.316 µM, first compound 0.000316 µM",51.2%
same,"viability, T/C","second compound 0.316 µM, first compound 0.001 µM",44.2%
same,"viability, T/C",[27],49.4%
same,"viability, T/C",[28],43.4%
same,"viability, T/C",[13],47.1%
same,"viability, T/C",[14],47.6%
same,"viability, T/C","second compound 1 µM, first compound 0.000316 µM",38.7%
same,"viability, T/C","second compound 1 µM, first compound 0.001 µM",47.1%
same,"viability, T/C",[29],51.8%
same,"viability, T/C",[30],41.2%
same,"viability, T/C",[17],46.6%
same,"viability, T/C",[18],52.7%
